Reference: the supplement of paper PMC4932681

Key:
ZR-75-1 Tam1 [1] = assay: drug sensitivity score (DSS) (DSS (dimensionless)); higher = more sensitive; extreme values may be limits of the assay; conditions: 4-OH-tamoxifen in medium 1 µM; 72 h
Outline: (§1)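 After seeding into 384-well plates with library drugs at five concentrations spanning a 10 000-fold range, breast cancer cell lines and their resistant derivatives were incubated 72 h at 37 °C. Resistant lines received medium with 1 μM of the selecting drug. CellTiter-Glo signal was read on a PHERAstar and scaled to vehicle-only and positive controls. Drug sensitivity score, relative IC50 (the curve midpoint) and top-dose inhibition came from logistic fits run in the Breeze pipeline.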

MCF-7 Tam1 [2] = assay: as above; conditions: 4-OH-tamoxifen in medium 1 µM; 72 h
Outline: as §1

MCF-7 [3] = assay: as above; conditions: 72 h
Outline: as §1

BT-474 Tam2 = assay: as above; conditions: 4-OH-tamoxifen in medium 1 µM; 72 h
Outline: as §1

ZR-75-1 [4] = assay: as above; conditions: 72 h
Outline: as §1

ZR-75-1 Tam2 [5] = assay: as above; conditions: 4-OH-tamoxifen in medium 1 µM; 72 h
Outline: as §1

BT-474 Tam1 [6] = assay: as above; conditions: 4-OH-tamoxifen in medium 1 µM; 72 h
Outline: as §1

T-47D Tam2 [7] = assay: as above; conditions: 4-OH-tamoxifen in medium 1 µM; 72 h
Outline: as §1

T-47D [8] = assay: as above; conditions: 72 h
Outline: as §1

T-47D Tam1 [9] = assay: as above; conditions: 4-OH-tamoxifen in medium 1 µM; 72 h
Outline: as §1

BT-474 [10] = assay: as above; conditions: 72 h
Outline: as §1

ZR-75-1 Tam1 [11] = assay: relative IC50 (midpoint of fitted logistic curve, plateau may be below 50% inhibition; CellTiter-Glo viability); higher = less potent; conditions: 4-OH-tamoxifen in medium 1 µM; 72 h
Outline: as §1

MCF-7 Tam1 [12] = assay: as above; conditions: 4-OH-tamoxifen in medium 1 µM; 72 h
Outline: as §1

MCF-7 [13] = assay: as above; conditions: 72 h
Outline: as §1

ZR-75-1 [14] = assay: as above; conditions: 72 h
Outline: as §1

ZR-75-1 Tam2 [15] = assay: as above; conditions: 4-OH-tamoxifen in medium 1 µM; 72 h
Outline: as §1

BT-474 Tam1 [16] = assay: as above; conditions: 4-OH-tamoxifen in medium 1 µM; 72 h
Outline: as §1

T-47D Tam2 [17] = assay: as above; conditions: 4-OH-tamoxifen in medium 1 µM; 72 h
Outline: as §1

T-47D [18] = assay: as above; conditions: 72 h
Outline: as §1

T-47D Tam1 [19] = assay: as above; conditions: 4-OH-tamoxifen in medium 1 µM; 72 h
Outline: as §1

BT-474 [20] = assay: as above; conditions: 72 h
Outline: as §1

SMILES	drug sensitivity score (ZR-75-1 Tam1 [1])	drug sensitivity score (MCF-7 Tam1 [2])	drug sensitivity score (MCF-7 [3]; 4-OH-tamoxifen in medium 0 µM)	drug sensitivity score (MCF-7 [3]; 4-OH-tamoxifen in medium 1 µM)	drug sensitivity score (BT-474 Tam2)	drug sensitivity score (ZR-75-1 [4]; 4-OH-tamoxifen in medium 0 µM)	drug sensitivity score (ZR-75-1 [4]; 4-OH-tamoxifen in medium 1 µM)	drug sensitivity score (ZR-75-1 Tam2 [5])	drug sensitivity score (BT-474 Tam1 [6])	drug sensitivity score (T-47D Tam2 [7])	drug sensitivity score (T-47D [8]; 4-OH-tamoxifen in medium 0 µM)	drug sensitivity score (T-47D [8]; 4-OH-tamoxifen in medium 1 µM)	drug sensitivity score (T-47D Tam1 [9])	drug sensitivity score (BT-474 [10]; 4-OH-tamoxifen in medium 0 µM)	drug sensitivity score (BT-474 [10]; 4-OH-tamoxifen in medium 1 µM)	relative IC50 (ZR-75-1 Tam1 [11]) [nM]	relative IC50 (MCF-7 Tam1 [12]) [nM]	relative IC50 (MCF-7 [13]; 4-OH-tamoxifen in medium 0 µM) [nM]	relative IC50 (MCF-7 [13]; 4-OH-tamoxifen in medium 1 µM) [nM]	relative IC50 (ZR-75-1 [14]; 4-OH-tamoxifen in medium 0 µM) [nM]	relative IC50 (ZR-75-1 [14]; 4-OH-tamoxifen in medium 1 µM) [nM]	relative IC50 (ZR-75-1 Tam2 [15]) [nM]	relative IC50 (BT-474 Tam1 [16]) [nM]	relative IC50 (T-47D Tam2 [17]) [nM]	relative IC50 (T-47D [18]; 4-OH-tamoxifen in medium 0 µM) [nM]	relative IC50 (T-47D [18]; 4-OH-tamoxifen in medium 1 µM) [nM]	relative IC50 (T-47D Tam1 [19]) [nM]	relative IC50 (BT-474 [20]; 4-OH-tamoxifen in medium 0 µM) [nM]	relative IC50 (BT-474 [20]; 4-OH-tamoxifen in medium 1 µM) [nM]
COc1cccc2c1C(=O)c1c(O)c3c(c(O)c1C2=O)C[C@@](O)(C(=O)CO)C[C@@H]3O[C@H]1C[C@H](N)[C@H](O)[C@H](C)O1 [Doxorubicin]	4.65	2.46	5.29	3.47	0.115	4.96	6.3	7.21	2.96	4.23	6.88	3.36	6.83	3	3.73	286	387	247	331	199	214	144	399	300	154	396	171	374	424
CCN(CC)CCCC(C)Nc1ccnc2cc(Cl)ccc12 (stereo unspecified) [Chloroquine]	0	0	0	0	0.999	0	0	0	0.266	0	0	0	0	0	0	> 990000	> 990000	> 990000	> 990000	> 990000	> 990000	> 990000		> 990000	> 990000	> 990000	> 990000	> 990000	> 990000
CC[C@@H]1C(=O)OC[C@@H]1Cc1cncn1C [Pilocarpine]	0	0	0	0	0	0	0	0	0	0	0	0	0	0	0	> 40000	> 40000	> 40000	> 40000	> 40000	> 40000	> 40000	> 40000	> 40000	> 40000	> 40000	> 40000	> 40000	> 40000
